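Five concentrations, 48 hours, 96-well plates. At the GI50, growth is halved.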 Activity calls are given as the source filed them. Cut-off read from the data, not from the text of the source: active = GI50 up to about 1.1 µM and inactive = higher.
What was measured:
Assay in all cases: growth of human tumour cells (NCI), 48 h
SK-MEL-28 = tested on: SK-MEL-28
OVCAR-8 = tested on: OVCAR-8
UACC-257 = tested on: UACC-257
HCC 2998 = tested on: HCC 2998
NCI-H460 = tested on: NCI-H460
KM12 = tested on: KM12
Malme-3M = tested on: Malme-3M
SF-268 = tested on: SF-268
HOP-92 = tested on: HOP-92
OVCAR-3 = tested on: OVCAR-3
IGROV-1 = tested on: IGROV-1
A549 = tested on: A549
HOP-62 = tested on: HOP-62
SK-MEL-5 = tested on: SK-MEL-5
M14 = tested on: M14
OVCAR-5 = tested on: OVCAR-5
UACC-62 = tested on: UACC-62

Measured: GI50

O=c1c2ccccc2[nH]c(=S)n1-c1ccc(Br)cc1
inactive: SK-MEL-28 > 100 µM | OVCAR-8 95.5 µM | UACC-257 > 100 µM | HCC 2998 > 100 µM | NCI-H460 42.9 µM | KM12 > 100 µM | Malme-3M > 100 µM | SF-268 90.8 µM | HOP-92 18.8 µM | OVCAR-3 45.1 µM | IGROV-1 71.4 µM | A549 33.3 µM | HOP-62 > 100 µM

O=c1c2cccnc2ncn1CCCN1CCOCC1
inactive: SK-MEL-28 > 100 µM | OVCAR-8 > 100 µM | SK-MEL-5 > 100 µM | M14 > 100 µM | HCC 2998 > 100 µM | OVCAR-5 > 100 µM | NCI-H460 > 100 µM | KM12 > 100 µM | UACC-62 > 100 µM | Malme-3M > 100 µM | SF-268 > 100 µM | HOP-92 > 100 µM | OVCAR-3 > 100 µM | IGROV-1 > 100 µM | A549 > 100 µM | HOP-62 > 100 µM

COc1cc(-c2n[nH]cc2CCCC(=O)Nc2ccccc2[N+](=O)[O-])ccc1O
inactive: SK-MEL-28 > 100 µM | OVCAR-8 > 100 µM | SK-MEL-5 61.4 µM | UACC-257 > 100 µM | M14 50.9 µM | HCC 2998 > 100 µM | OVCAR-5 > 100 µM | UACC-62 67.9 µM | Malme-3M 19.2 µM | SF-268 > 100 µM | HOP-92 91.8 µM | IGROV-1 > 100 µM | A549 73.8 µM | HOP-62 > 100 µM

CCc1cccc(C)c1NC(=O)CCc1n[nH]c(=S)o1
inactive: SK-MEL-28 > 100 µM | OVCAR-8 > 100 µM | SK-MEL-5 > 100 µM | UACC-257 > 100 µM | M14 > 100 µM | HCC 2998 > 100 µM | OVCAR-5 > 100 µM | NCI-H460 > 100 µM | KM12 > 100 µM | UACC-62 > 100 µM | Malme-3M > 100 µM | SF-268 > 100 µM | HOP-92 > 100 µM | OVCAR-3 > 100 µM | IGROV-1 > 100 µM | HOP-62 > 100 µM

O=C1CCC(=O)N2CCCCN12
inactive: SK-MEL-28 > 100 µM | OVCAR-8 > 100 µM | SK-MEL-5 > 100 µM | UACC-257 > 100 µM | M14 > 100 µM | HCC 2998 > 100 µM | OVCAR-5 > 100 µM | NCI-H460 > 100 µM | KM12 > 100 µM | UACC-62 > 100 µM | Malme-3M > 100 µM | SF-268 > 100 µM | HOP-92 > 100 µM | OVCAR-3 > 100 µM | IGROV-1 > 100 µM | A549 > 100 µM | HOP-62 > 100 µM

CCOC(=O)Cc1csc(Nc2ccccc2[N+](=O)[O-])n1
inactive: SK-MEL-28 > 100 µM | OVCAR-8 > 100 µM | SK-MEL-5 > 100 µM | UACC-257 > 100 µM | M14 > 100 µM | HCC 2998 > 100 µM | OVCAR-5 > 100 µM | NCI-H460 > 100 µM | KM12 > 100 µM | UACC-62 > 100 µM | Malme-3M > 100 µM | SF-268 > 100 µM | HOP-92 > 100 µM | OVCAR-3 > 100 µM | IGROV-1 > 100 µM | A549 > 100 µM | HOP-62 > 100 µM

Cc1cccc(C(C)(C)C)c1NC(=O)CCc1n[nH]c(=S)o1
inactive: SK-MEL-28 > 100 µM | OVCAR-8 > 100 µM | SK-MEL-5 > 100 µM | UACC-257 > 100 µM | M14 > 100 µM | HCC 2998 > 100 µM | OVCAR-5 > 100 µM | NCI-H460 > 100 µM | KM12 > 100 µM | UACC-62 > 100 µM | Malme-3M > 100 µM | SF-268 > 100 µM | HOP-92 > 100 µM | OVCAR-3 > 100 µM | IGROV-1 > 100 µM | A549 > 100 µM | HOP-62 > 100 µM

CC1C=C(OC(=O)c2ccccc2)C(=O)C(n2cc(F)c(=O)[nH]c2=O)O1 (configuration not stated)
inactive: SK-MEL-28 53.1 µM | OVCAR-8 84.3 µM | SK-MEL-5 91 µM | UACC-257 > 100 µM | M14 51.3 µM | HCC 2998 5.56 µM | OVCAR-5 > 100 µM | NCI-H460 19.5 µM | KM12 46 µM | UACC-62 79.4 µM | Malme-3M 51.2 µM | SF-268 > 100 µM | HOP-92 > 100 µM | OVCAR-3 > 100 µM | IGROV-1 > 100 µM | A549 38.2 µM | HOP-62 27.8 µM

CCC1C(C(=O)Nc2ccccc2C)=C(C)NC(C)=C1c1ccccc1C (configuration not stated)
inactive: SK-MEL-28 > 100 µM | OVCAR-8 > 100 µM | SK-MEL-5 > 100 µM | UACC-257 > 100 µM | M14 > 100 µM | HCC 2998 > 100 µM | OVCAR-5 > 100 µM | NCI-H460 > 44.1 µM | KM12 > 100 µM | UACC-62 > 100 µM | Malme-3M > 100 µM | SF-268 > 40.6 µM | HOP-92 > 100 µM | OVCAR-3 > 100 µM | IGROV-1 > 100 µM | A549 > 78 µM | HOP-62 > 100 µM

CC(=O)O[C@H]1CC[C@@]2(C)C(=CC[C@H]3C(CC#N)[C@@](C)(C#N)CCC32)C1 (some centres not stated)
inactive: SK-MEL-28 > 100 µM | OVCAR-8 > 100 µM | SK-MEL-5 > 100 µM | UACC-257 > 100 µM | M14 > 100 µM | HCC 2998 > 100 µM | OVCAR-5 > 100 µM | NCI-H460 > 100 µM | KM12 > 100 µM | UACC-62 > 100 µM | Malme-3M > 100 µM | SF-268 > 100 µM | HOP-92 16.1 µM | OVCAR-3 > 100 µM | IGROV-1 > 100 µM | A549 > 100 µM | HOP-62 > 100 µM

CS(=O)(=O)Oc1cccc(/C=N/N=C(\N)NO)c1
inactive: SK-MEL-28 > 100 µM | OVCAR-8 33.2 µM | UACC-257 38.8 µM | M14 27.1 µM | HCC 2998 20.6 µM | OVCAR-5 36 µM | NCI-H460 24.8 µM | KM12 25.1 µM | UACC-62 4.84 µM | Malme-3M 23.1 µM | SF-268 24.2 µM | HOP-92 22.4 µM | OVCAR-3 35.2 µM | IGROV-1 35.2 µM | A549 21.8 µM | HOP-62 27.5 µM

COc1ccc(/C=C/c2cc(OC)c(OC(C)=O)c(OC)c2)cc1
inactive: SK-MEL-28 9.68 µM | OVCAR-8 22 µM | UACC-257 20.7 µM | M14 34.6 µM | HCC 2998 20.7 µM | OVCAR-5 1.94 µM | NCI-H460 22.1 µM | UACC-62 20.1 µM | Malme-3M 26.3 µM | SF-268 29.1 µM | HOP-92 28.1 µM | OVCAR-3 41.2 µM | IGROV-1 36.8 µM | A549 24.8 µM | HOP-62 25.9 µM
